Drawing on patent publication US20240382482A1, “PLASMA KALLIKREIN INHIBITORS” (TAKEDA PHARMACEUTICAL COMPANY LIMITED, priority 2021, published 2024), this text covers EC50 for 26 compounds.

Each structure is given as a SMILES string. A value given as a limit tells only on which side of the number the result lay.

human activated kallikrein enzyme, sequence (P03952 391-638 limits assumed): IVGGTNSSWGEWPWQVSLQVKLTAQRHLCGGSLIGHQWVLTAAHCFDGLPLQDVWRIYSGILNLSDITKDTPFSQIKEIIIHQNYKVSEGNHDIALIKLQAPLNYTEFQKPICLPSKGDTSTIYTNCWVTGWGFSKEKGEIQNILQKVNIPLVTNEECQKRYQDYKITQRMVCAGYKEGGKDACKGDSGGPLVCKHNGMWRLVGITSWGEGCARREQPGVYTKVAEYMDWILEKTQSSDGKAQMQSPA
human activated kallikrein enzyme, sequence (P03952 20-390 partner limits assumed): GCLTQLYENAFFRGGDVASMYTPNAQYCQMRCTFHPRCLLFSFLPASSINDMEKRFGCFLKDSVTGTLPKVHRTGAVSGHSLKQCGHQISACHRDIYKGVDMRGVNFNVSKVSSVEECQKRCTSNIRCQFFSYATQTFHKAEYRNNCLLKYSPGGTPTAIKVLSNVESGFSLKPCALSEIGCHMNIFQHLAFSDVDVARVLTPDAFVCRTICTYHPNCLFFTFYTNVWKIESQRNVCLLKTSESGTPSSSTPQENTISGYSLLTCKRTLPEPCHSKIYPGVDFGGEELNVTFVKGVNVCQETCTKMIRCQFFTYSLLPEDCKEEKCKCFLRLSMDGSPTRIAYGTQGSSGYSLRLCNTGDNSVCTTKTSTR

This assay has as its target human activated kallikrein enzyme (Homo sapiens, UniProt P03952). As to the kind of experiment: Inhibition of human activated kallikrein enzyme, fluorogenic peptide substrate assay (500 pM enzyme format). Type of assay: biochemical. The settings on record: 500 pM activated kallikrein, 300 μM PFR-AMC substrate, 30 min preincubation, 10 min reaction, room temperature; read-out: Primary Dose Response Assay: Average EC50. As for the experimental part:
Compounds were evaluated for inhibition of the human activated kallikrein enzyme in two formats of an assay employing a fluorogenic peptide substrate. In one assay format, the concentrations of reagents were as follows: 20 mM Tris pH 7.5, 1 mM EDTA, 150 mM sodium chloride, 0.1% PEG-400, 0.1% Triton X-100, 500 pM activated kallikrein enzyme, 300 μM Pro-Phe-Arg-7-amido-4-methylcoumarin (PFR-AMC) substrate. Prior to reaction initiation with substrate, enzyme and inhibitors were preincubated for 30 min at room temperature. After initiation with substrate, reactions were incubated for 10 min at room temperature and fluorescence emission at 460 nm from 380 nm excitation measured with a microplate reader. In another assay format, the concentrations of reagents were as follows: 20 mM Tris pH 7.5, 1 mM EDTA, 150 mM sodium chloride, 0.1% PEG-400, 0.1% Triton X-100, 5 pM activated kallikrein enzyme, 300 uM PFR-AMC substrate. Prior to reaction initiation with substrate, enzyme and inhibitors were preincubated for 30 min at room temperature. After initiation with substrate, reactions were incubated for 18 hr at room temperature and fluorescence emission at 460 nm from 380 nm excitation measured with a microplate reader.
Table 1 provides the results of the assay in the format with 500 pM activated kallikrein assay. For the compounds listed in Table 1, the EC50 values are reported according to the following ranges: A≤5.0 nM; 5.0 nM<B≤50 nM; 50 nM<C≤500 nM; 500 nM<D≤9000 nM; 9000 nM<E.
Take `Clc1cccc([C@H]2C[C@@H]2CNc2cc(NCc3cn4cc(C5CC5)ccc4n3)ncn2)c1` [Example 138, N^4-(((1S,2S)-2-(3-chlorophenyl)cyclopropyl)methyl)-N^6-((6-cyclopropylimidazo[1,2-a]pyridin-2-yl)methyl)pyrimidine-4,6-diamine]: the EC50 lay in the range of 500 to 9000 nM.

Turning to `Cc1cc(C(=N)N)cc(C)c1CNc1cc(OCc2cn3cc(C4CC4)cc(CC(=O)O)c3n2)ncn1` [Example 95, 2-(2-((6-(4-carbamimidoyl-2,6-dimethylbenzylamino)pyrimidin-4-yloxy)methyl)-6-cyclopropylimidazo[1,2-a]pyridin-8-yl)acetic acid], the EC50 is at most 5 nM.

As for `CCOC(=O)C(C)(C)Cc1cc(C2CC2)cn2cc(CNc3cc(NC(=O)Cc4ncn5ccc(Cl)cc45)ncn3)nc12` [Example 47, ethyl 3-(2-(((6-(2-(7-chloroimidazo[1,5-a]pyridin-1-yl)acetamido)pyrimidin-4-yl)amino)methyl)-6-cyclopropylimidazo[1,2-a]pyridin-8-yl)-2,2-dimethylpropanoate], the 50% effective concentration (EC50) was 5 to 50 nM.

`CC(C(=O)Nc1cc(NCc2cn3cc(C4CC4)ccc3n2)ncn1)N(C)c1cccc(Cl)c1` (centres unmarked) [Example 9, 2-((3-chlorophenyl)(methyl)amino)-N-(6-(((6-cyclopropylimidazo[1,2-a]pyridin-2-yl)methyl)amino)pyrimidin-4-yl)propanamide]: the EC50 was in the range of 500 to 9000 nM.

Consider `O=C(NCc1ncn2ccc(Cl)cc12)c1cnnc(OCc2cn3cc(C4CC4)ccc3n2)c1` [Example 66, N-((7-chloroimidazo[1,5-a]pyridin-1-yl)methyl)-6-((6-cyclopropylimidazo[1,2-a]pyridin-2-yl)methoxy)pyridazine-4-carboxamide], for which the EC50 fell in the range of 5 to 50 nM.

Take `COc1ccc(=O)n(CC(=O)Nc2cc(NCc3cn4cc(C5CC5)ccc4n3)ncn2)c1` [Example 121, N-(6-(((6-cyclopropylimidazo[1,2-a]pyridin-2-yl)methyl)amino)pyrimidin-4-yl)-2-(5-methoxy-2-oxopyridin-1 (2H)-yl)acetamide]: the EC50 is above 9000 nM.

`CCOC(=O)c1nc(NCc2c(C)cc(C(=N)N)cc2C)cc(OCc2cn3cc(C4CC4)ccc3n2)n1` [Example 82, ethyl 4-((4-carbamimidoyl-2,6-dimethylbenzyl)amino)-6-((6-cyclopropylimidazo[1,2-a]pyridin-2-yl)methoxy)pyrimidine-2-carboxylate]: the EC50 is at most 5 nM.

As for `O=C(/C=C/c1cccc(Cl)c1)Nc1cc(NCc2cn3cc(C4CC4)ccc3n2)ncn1` [Example 50, (E)-3-(3-chlorophenyl)-N-(6-(((6-cyclopropylimidazo[1,2-a]pyridin-2-yl)methyl)amino)pyrimidin-4-yl)acrylamide], the EC50 was in the range of 5 to 50 nM.

`O=C(Cc1ncn2ccc(Br)c(F)c12)Nc1cc(NCc2cn3cc(C4CC4)ccc3n2)ncn1` [Example 53, 2-(7-bromo-8-fluoroimidazo[1,5-a]pyridin-1-yl)-N-(6-(((6-cyclopropylimidazo[1,2-a]pyridin-2-yl)methyl)amino)pyrimidin-4-yl)acetamide]: the concentration for a half-maximal effect (EC50) was at most 5 nM.

For `CCOC(=O)CCc1cc(C2CC2)cn2cc(CNc3cc(NC(=O)Cc4ncn5ccc(Cl)cc45)ncn3)nc12` [Example 38, ethyl 3-(2-(((6-(2-(7-chloroimidazo[1,5-a]pyridin-1-yl)acetamido)pyrimidin-4-yl)amino)methyl)-6-cyclopropylimidazo[1,2-a]pyridin-8-yl)propanoate], the EC50 was at most 5 nM.

With `O=C(Cn1c(=O)oc2ccc(Cl)cc21)Nc1cc(NCc2cn3cc(C4CC4)ccc3n2)ncn1` [Example 123, 2-(5-chloro-2-oxobenzo[d]oxazol-3 (2H)-yl)-N-(6-(((6-cyclopropylimidazo[1,2-a]pyridin-2-yl)methyl)amino)pyrimidin-4-yl)acetamide], the EC50 was 500 to 9000 nM.

`O=C(Cc1ncn2ccc(Cl)cc12)Nc1cc(C(O)c2cn3cc(C4CC4)ccc3n2)ncn1` (centres unmarked) [Example 59, 2-(7-chloroimidazo[1,5-a]pyridin-1-yl)-N-(6-((6-cyclopropylimidazo[1,2-a]pyridin-2-yl)(hydroxy)methyl)pyrimidin-4-yl)acetamide]: the EC50 is at most 5 nM.

Take `O=C(O)CCc1cc(C2CC2)cn2cc(CNc3cc(NC(=O)Cc4ncn5ccc(Cl)cc45)ncn3)nc12` [Example 39, 3-(2-(((6-(2-(7-chloroimidazo[1,5-a]pyridin-1-yl)acetamido)pyrimidin-4-yl)amino)methyl)-6-cyclopropylimidazo[1,2-a]pyridin-8-yl)propanoic acid]: the EC50 is at most 5 nM.

On to `Cc1cc(C(=N)N)cc(C)c1CNc1cc(OCc2cn3cc(C4CC4)ccc3n2)nc(C(=O)O)n1` [Example 85, 4-((4-carbamimidoyl-2,6-dimethylbenzyl)amino)-6-((6-cyclopropylimidazo[1,2-a]pyridin-2-yl)methoxy)pyrimidine-2-carboxylic acid], for which the concentration for a half-maximal effect (EC50) is at most 5 nM.

For the compound `CC(O)(C(=O)Nc1cc(NCc2cn3cc(C4CC4)ccc3n2)ncn1)c1ncn2ccc(Cl)c(F)c12` (centres unmarked) [Example 106, 2-(7-chloro-8-fluoroimidazo[1,5-a]pyridin-1-yl)-N-(6-(((6-cyclopropylimidazo[1,2-a]pyridin-2-yl)methyl)amino)pyrimidin-4-yl)-2-hydroxypropanamide], the EC50 is above 9000 nM.

On to `O=C(Cc1ncn2ccc(Cl)cc12)Nc1cc(NCc2cn3cc(C4CC4)cc(C4(F)COC4)c3n2)ncn1` [Example 19, 2-(7-chloroimidazo[1,5-a]pyridin-1-yl)-N-(6-(((6-cyclopropyl-8-(3-fluorooxetan-3-yl)imidazo[1,2-a]pyridin-2-yl)methyl)amino)pyrimidin-4-yl)acetamide], for which the half-maximal effective concentration (EC50) is at most 5 nM.

As to `COc1ccc(N)c(CC(=O)Nc2cc(NCc3cn4cc(C5CC5)ccc4n3)ncn2)c1F` [Example 36, 2-(6-amino-2-fluoro-3-methoxyphenyl)-N-(6-(((6-cyclopropylimidazo[1,2-a]pyridin-2-yl)methyl)amino)pyrimidin-4-yl)acetamide], the EC50 fell in the range of 500 to 9000 nM.

As to `O=C(Nc1cc(NCc2cn3cc(C4CC4)ccc3n2)ncn1)C(=O)c1ncn2ccc(Cl)cc12` [Example 54, 2-(7-chloroimidazo[1,5-a]pyridin-1-yl)-N-(6-(((6-cyclopropylimidazo[1,2-a]pyridin-2-yl)methy)amino)pyrimidin-4-yl)-2-oxoacetamide], the EC50 was at most 5 nM.

As for `N#C/N=C(\NCc1cccc(Cl)c1)Nc1cc(NCc2cn3cc(C4CC4)ccc3n2)ccn1` [Example 128, (E)-1-(3-chlorobenzyl)-2-cyano-3-(4-(((6-cyclopropylimidazo[1,2-a]pyridin-2-yl)methyl)amino)pyridin-2-yl)guanidine], the EC50 lay in the range of 500 to 9000 nM.

In the case of `N#Cc1cc(C2CC2)cn2cc(CNc3cc(NC(=O)Cc4ncn5ccc(Cl)cc45)ncn3)nc12` [Example 13, 2-(7-chloroimidazo[1,5-a]pyridin-1-yl)-N-(6-(((8-cyano-6-cyclopropylimidazo[1,2-a]pyridin-2-yl)methyl)amino)pyrimidin-4-yl)acetamide], the EC50 was at most 5 nM.

Take `O=C(Cc1ncn2ccc(Cl)cc12)Nc1cncnc1NCc1cn2cc(C3CC3)ccc2n1` [Example 42, 2-(7-chloroimidazo[1,5-a]pyridin-1-yl)-N-(4-(((6-cyclopropylimidazo[1,2-a]pyridin-2-yl)methyl)amino)pyrimidin-5-yl)acetamide]: the EC50 lay in the range of 50 to 500 nM.

`O=C(NCc1ncn2ccc(Cl)cc12)c1cnnc(NCc2cn3cc(C4CC4)ccc3n2)c1` [Example 65, N-((7-chloroimidazo[1,5-a]pyridin-1-yl)methyl)-6-(((6-cyclopropylimidazo[1,2-a]pyridin-2-yl)methyl)amino)pyridazine-4-carboxamide]: the EC50 lay within 5 to 50 nM.

Turning to `COc1ccc(C#N)c(CC(=O)Nc2cc(NCc3cn4cc(C5CC5)ccc4n3)ncn2)c1F` [Example 3, 2-(6-cyano-2-fluoro-3-methoxyphenyl)-N-(6-(((6-cyclopropylimidazo[1,2-a]pyridin-2-yl)methyl)amino)pyrimidin-4-yl)acetamide], the EC50 fell in the range of 500 to 9000 nM.

`CCCCCCOC(=O)NC(=N)c1cc(C)c(CNc2cc(OCc3cn4cc(C5CC5)ccc4n3)nc(CCC(=O)OCC)n2)c(C)c1` [Example 75, ethyl 3-(4-((6-cyclopropylimidazo[1,2-a]pyridin-2-yl)methoxy)-6-((4-(N-((hexyloxy)carbonyl)carbamimidoyl)-2,6-dimethylbenzyl)amino)pyrimidin-2-yl)propanoate]: the EC50 lay in the range of 50 to 500 nM.

As for `N#Cc1cc(C2CC2)cn2cc(CNc3cc(NC(=O)Cc4cc(Cl)ccc4-n4cnnn4)ncn3)nc12` [Example 15, 2-(5-chloro-2-(1H-tetrazol-1-yl)phenyl)-N-(6-(((8-cyano-6-cyclopropylimidazo[1,2-a]pyridin-2-yl)methyl)amino)pyrimidin-4-yl)acetamide], the concentration giving a half-maximal response (EC50) was at most 5 nM.

For `O=S(=O)(Nc1cc(NCc2cn3cc(C4CC4)ccc3n2)ncn1)C1CC1c1cccc(Cl)c1` (centres unmarked) [Example 67, 2-(3-chlorophenyl)-N-(6-(((6-cyclopropylimidazo[1,2-a]pyridin-2-yl)methyl)amino)pyrimidin-4-yl)cyclopropane-1-sulfonamide], the EC50 lay in the range of 500 to 9000 nM.

As usually defined, the EC50 is the concentration needed to bring the measured effect to its halfway point.
